Assay results reported in patent US20230357233A1, “HETEROARYL COMPOUNDS, PREPARATION METHODS AND USES THEREOF” (INVENTISBIO CO., LTD., priority 2020, published 2023).

Columns and labels:
[1] = molecular target: recombinant human KRAS^G12D protein (Homo sapiens, UniProt P01116, G12D); assay: Temperature-dependent Fluorescence (TdF) KRAS^G12D protein binding assay; conditions: 6 μM KRAS^G12D Protein, 10 μM compound, Sypro Orange; Kd calculated from fluorescent shift
In short: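 Sypro Orange thermal-shift assay, heating from 30 to 95 °C with readings every 0.4 °C (ex 470/em 570 nm). Binding is gauged as ΔTm with versus without compound. Kd is calculated from the degree of the unfolding-temperature shift.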

Ba/F3_KRAS^G12D cells = Ba/F3_KRAS^G12D cells (Homo sapiens, UniProt P01116, G12D, cells depend on it); assay: Ba/F3 KRAS^G12D cell proliferation assay (cell-titer Glo); assay type: cell-based; conditions: cell growth inhibition, treated with the compounds for 3 days, read-out: BaF3_KRAS^G12D IC50
Sequence of Ba/F3_KRAS^G12D cells (P01116 whole entry G12D): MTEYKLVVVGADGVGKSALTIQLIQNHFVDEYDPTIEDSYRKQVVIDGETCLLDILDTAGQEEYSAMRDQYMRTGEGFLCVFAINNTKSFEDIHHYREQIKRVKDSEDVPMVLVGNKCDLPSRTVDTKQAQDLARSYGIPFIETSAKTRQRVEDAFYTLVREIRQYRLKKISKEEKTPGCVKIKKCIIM

Sequence of recombinant human KRAS^G12D protein (P01116 1-188 isoform P01116-2 G12D): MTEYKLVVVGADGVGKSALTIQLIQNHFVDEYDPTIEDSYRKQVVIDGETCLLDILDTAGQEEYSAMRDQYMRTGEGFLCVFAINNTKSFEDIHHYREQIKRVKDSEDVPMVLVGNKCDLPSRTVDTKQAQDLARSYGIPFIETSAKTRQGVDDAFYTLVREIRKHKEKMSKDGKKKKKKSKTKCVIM

| Structure (SMILES) | Kd [1] | GI50 (Ba/F3_KRAS^G12D cells) |
| --- | --- | --- |
| CCc1cccc2cc(O)cc(-c3nc(C)c4c(N5CC6CCC(C5)N6)nc(OC[C@@]56CCCN5C[C@H](F)C6)nc4c3C3CC3)c12 [Compound 122] | > 5000 nM | 500 to 5000 nM |
| Cc1nc(-c2cccc3cccc(CCC#N)c23)c(F)c2nc(OC[C@@]34CCCN3C[C@H](F)C4)nc(N3CC4CCC(C3)N4)c12 [Compound 123] | > 5000 nM | 500 to 5000 nM |
| CCOc1c(F)ccc2cc(O)cc(-c3nc(OC)c4c(N5CC6CCC(C5)N6)nc(OC[C@@]56CCCN5C[C@H](F)C6)nc4c3F)c12 [Compound 148] | ≤ 500 nM | < 500 nM |
| C#Cc1c(F)ccc2cc(O)cc(-c3nc(Cl)c4c(N5CC6CCC(C5)N6)nc(OC[C@@H]5CCCN5C)nc4c3F)c12 [Compound 159] | ≤ 500 nM | < 500 nM |
| C#Cc1c(F)ccc2cc(O)cc(-c3nc(OC)c4c(N5CC6CCC(C5)N6)nc(OC[C@@H]5CCCN5C)nc4c3F)c12 [Compound 160] | ≤ 500 nM | < 500 nM |
| C#Cc1c(F)ccc2cc(N)cc(-c3nc(OC)c4c(N5CC6CCC(C5)N6)nc(OC[C@@]56CCCN5C[C@H](F)C6)nc4c3F)c12 [Compound 163] | ≤ 500 nM | < 500 nM |
| C#Cc1c(F)ccc2cc(O)cc(-c3nc(C(F)F)c4c(N5CC6CCC(C5)N6)nc(OC[C@@]56CCCN5C[C@H](F)C6)nc4c3F)c12 [Compound 165] | ≤ 500 nM | < 500 nM |
| CCc1c(F)ccc2cc(O)cc(-c3nc(C(F)F)c4c(N5CC6CCC(C5)N6)nc(OC[C@@]56CCCN5C[C@H](F)C6)nc4c3F)c12 [Compound 166] | ≤ 500 nM | < 500 nM |
| C#Cc1c(F)ccc2cc(O)cc(-c3nc(OC(C)C)c4c(N5CC6CCC(C5)N6)nc(OC[C@@]56CCCN5C[C@H](F)C6)nc4c3F)c12 [Compound 171] | ≤ 500 nM | < 500 nM |
| CCOc1nc(-c2cc(O)cc3ccc(F)c(Cl)c23)c(F)c2nc(OC[C@@]34CCCN3C[C@H](F)C4)nc(N3CC4CCC(C3)N4)c12 [Compound 173] | ≤ 500 nM | < 500 nM |
| C#Cc1c(F)ccc2cc(O)cc(-c3nc(OC)c4c(N5CC6CCC(C5)N6)nc(OC[C@]56CCCN5[C@@H](COC(=O)N(C)C)CC6)nc4c3F)c12 [Compound 176] | ≤ 500 nM | < 500 nM |
| C#Cc1c(F)ccc2cc(O)cc(-c3nc(OC(C)C)c4c(N5CC6CCC(C5)N6)nc(OC[C@@H]5CCCN5C)nc4c3F)c12 [Compound 195] | ≤ 500 nM | < 500 nM |
| C#Cc1c(F)ccc2cc(O)cc(-c3nc(OC(C)C)c4c(N5CC6CCC(C5)N6)nc(OC[C@@H]5C[C@@H](F)CN5C)nc4c3F)c12 [Compound 197] | ≤ 500 nM | < 500 nM |

Further lines, results first:

| Kd [1] | GI50 (Ba/F3_KRAS^G12D cells) | Structure (SMILES) |
| --- | --- | --- |
| ≤ 500 nM | < 500 nM | CCc1cccc2c(F)c(O)cc(-c3nc(C)c4c(N5CC6CCC(C5)N6)nc(OC[C@@]56CCCN5C[C@H](F)C6)nc4c3F)c12 [Compound 124] |
| ≤ 500 nM | < 500 nM | CCc1cccc2cc(O)cc(-c3nc(OC)c4c(N5CC6CCC(C5)N6)nc(OC[C@@]56CCCN5C[C@H](F)C6)nc4c3F)c12 [Compound 125] |
| ≤ 500 nM | < 500 nM | Cc1nc(-c2cc(O)cc3ccc(F)c(Cl)c23)c(F)c2nc(OC[C@@]34CCCN3C[C@H](F)C4)nc(N3CC4CCC(C3)N4)c12 [Compound 126] |
| ≤ 500 nM | < 500 nM | C#Cc1c(F)ccc2cc(O)cc(-c3nc(C)c4c(N5CC6CCC(C5)N6)nc(OC[C@@]56CCCN5C[C@H](F)C6)nc4c3F)c12 [Compound 128] |
| ≤ 500 nM | < 500 nM | Cc1nc(-c2cc(O)cc3cccc(Cl)c23)c(Cl)c2nc(OC[C@@]34CCCN3C[C@H](F)C4)nc(N3CC4CCC(C3)N4)c12 [Compound 130] |
| ≤ 500 nM | < 500 nM | C#Cc1c(F)ccc2cc(O)cc(-c3cc4nc(OC[C@@]56CCCN5C[C@H](F)C6)nc(N5CC6CCC(C5)N6)c4c(C)n3)c12 [Compound 131] |
| ≤ 500 nM | < 500 nM | C#Cc1c(F)ccc2cc(O)cc(-c3nc(Cl)c4c(N5CC6CCC(C5)N6)nc(OC[C@@]56CCCN5C[C@H](F)C6)nc4c3F)c12 [Compound 132] |
| ≤ 500 nM | 500 to 5000 nM | CCc1cccc2cc(O)cc(-c3nc(O)c4c(N5CC6CCC(C5)N6)nc(OC[C@@]56CCCN5C[C@H](F)C6)nc4c3F)c12 [Compound 133] |
| ≤ 500 nM | < 500 nM | C#Cc1c(F)ccc2cc(O)cc(-c3nc(C)c4c(N5CC6CCC(C5)N6)nc(OC[C@@]56CCCN5C[C@H](F)C6)nc4c3Cl)c12 [Compound 134] |
| ≤ 500 nM | < 500 nM | C#Cc1c(F)ccc2cc(O)cc(-c3nc(OC)c4c(N5CC6CCC(C5)N6)nc(OC[C@@]56CCCN5C[C@H](F)C6)nc4c3F)c12 [Compound 135] |
| ≤ 500 nM | < 500 nM | CCc1cccc2cc(O)cc(-c3nc(C(F)F)c4c(N5CC6CCC(C5)N6)nc(OC[C@@]56CCCN5C[C@H](F)C6)nc4c3F)c12 [Compound 136] |
| ≤ 500 nM | < 500 nM | CCc1c(F)ccc2cc(O)cc(-c3nc(C)c4c(N5CC6CCC(C5)N6)nc(OC[C@@]56CCCN5C[C@H](F)C6)nc4c3F)c12 [Compound 137] |
| ≤ 500 nM | < 500 nM | CCc1c(F)ccc2cc(O)cc(-c3nc(Cl)c4c(N5CC6CCC(C5)N6)nc(OC[C@@]56CCCN5C[C@H](F)C6)nc4c3F)c12 [Compound 138] |
| ≤ 500 nM | < 500 nM | CCc1c(F)ccc2cc(O)cc(-c3nc(OC)c4c(N5CC6CCC(C5)N6)nc(OC[C@@]56CCCN5C[C@H](F)C6)nc4c3F)c12 [Compound 139] |
| ≤ 500 nM | < 500 nM | C#Cc1c(F)ccc2cc(O)cc(-c3nc(OCC)c4c(N5CC6CCC(C5)N6)nc(OC[C@@]56CCCN5C[C@H](F)C6)nc4c3F)c12 [Compound 141] |
| ≤ 500 nM | < 500 nM | COc1c(F)ccc2cc(O)cc(-c3nc(OC)c4c(N5CC6CCC(C5)N6)nc(OC[C@@]56CCCN5C[C@H](F)C6)nc4c3F)c12 [Compound 147] |
